Assay results: patent US6790603B2, “Compositions for the storage of platelets” (Bioenergy, Inc., priority 1999, dated 2004)

Experiments:
platelets [1] = assay: Preservation of function in stored platelets (ATP secretion, aggregation, P-selectin expression, pH, platelet count); type: cell-based
Procedure: It is known that other pentoses may have similar effects as D-Ribose, either through intracellular conversion to ribose or a direct effect. Ribulose-5-phosphate, xylulose-5-phosphate and xylitol were tested for preservation of activity in stored platelets according to the methods of examples 1 to 6.
Ribulose-5-phosphate was purchased from Sigma Chemical (St. Louis) and added to the standard CPD platelet storage solution. The following parameters of function were tested: ATP secretion in response to 10 nM thrombin; platelet aggregation; P-selectin expression in response to thrombin challenge; pH change; and platelet count. Platelet concentrate bags were obtained from a transfusion center within hours of collection. Aliquots were sampled from the platelet bags and concentrations of ribulose-5-phosphate were added for a final concentration from 1.5 mM down to 150 pM. Controls without ribulose-5-phosphate were analyzed for comparison. Samples were analyzed every 24 hours for platelet function.

platelets [2] = assay: Platelet aggregation on thrombin challenge (optical density / aggregometer); type: cell-based
Procedure: As a second measure of the effect of ribose on platelets, platelet aggregation was estimated. Platelet aggregation is a crucial function of platelet activity; platelets that cannot aggregate are essentially nonfunctional. Platelets were stored as above.
The optical density of the suspension was measured before and after thrombin challenge.
Platelet aggregation was measured with a platelet aggregometer (Chronolog, Inc., Irvine, Calif.). Platelet-rich, turbid suspensions were stirred in a cuvette and the transmittance of light through the sample relative to a platelet poor blank is recorded. When a aggregating agent is added, activated platelets with exposed fibrinogen receptors (GPIIbIIIa) are brought in close contact with each other in a medium containing calcium and fibrinogen and form increasingly large platelet aggregates, accompanied by a decrease in turbidity. The change in optical density was then translated by the instrument to percent aggregation. Simple stated, as platelets clump, more light passes through the cuvette.

platelets [3] = assay: P-selectin expression in stored platelets, basal and after 10 nM thrombin challenge (flow cytometry); type: cell-based
Procedure: A basal measurement of spontaneous activation is obtained and the cells are then challenged with an agonist. The difference between cells challenged to activate minus the basal measurement is a measure of cell function. In the preferred embodiment, the agonist is 10 nM thrombin. P-selectin expression in response to a challenge of 10 nM thrombin is a highly accurate and quantitative method to assess platelet function using flow cytometry techniques. A monoclonal antibody to the platelet GPIIbIIIa receptor (Becton-Dickinson) is conjugated with green fluorescence, marking all platelets with a green detection. […] About 10,000 to 25,000 platelets are counted and measured for P-selectin expression and the % positive cells are defined as activated platelets that express P-selectin. Platelets that are activated are not capable of being activated a second time; that is, they are essentially nonfunctional. It was proposed years ago by Dawson (Transfusion 21:215-218. (1981)) that ribose at the concentration of 15 mM is beneficial to stored whole blood. It was assumed that ribose functioned by raising the energy levels of the cells, as discussed at length in U.S. Pat. No. 6,159,942. […] Platelet function was assessed by ATP secretion, platelet aggregation, P-selectin expression, platelet count and pH. Platelet function was measured every 24 hours. […]

platelets [4] = assay: ATP secretion in response to 10 nM thrombin (luciferin/luciferase assay); type: cell-based
Description: The platelet dense granules shown in FIG. 1 contain ATP which is released in response to platelet agonists such as thrombin, collagen or adenosine diphosphate (ADP). The release reaction of ATP from platelets serves as another method to monitor platelet function. There are many methods to analyze ATP. A convenient method is the well known luciferin/luciferase reaction (Sigma Chemical, St. Louis). This assay is derived from the light producing system of the firefly. The substrate luciferin, in the presence of ATP, is cleaved by the enzyme luciferase, accompanied by the emission of light. The emitted light is measured by a photomultiplier tube
Platelet suspensions containing about 350 units in 4 μl were mixed with 10 μl luciferin/luciferase reagent. An agonist is injected. As the platelet dense granules release ATP, the bioluminescent reaction occurs, which is measured by the photomultiplier tube. […] The rate of reaction is recorded and as platelet function decays, the rate decays. Total ATP was measured by lysing the cells with Triton and determining ATP content. The results as presented in Table III are expressed as intact rate of ATP secretion.

bacteria = assay: Bacterial contamination of platelet storage solution (colony counts in Petri dishes); conditions: D-Ribose added to storage cocktail
Procedure: Bacterial contamination was measured by colony counts in standard Petri dishes that had been inculated with the test solution. It is assumed that the millimolar glucose concentration in most platelet storage solutions contributes to the growth of bacteria. As noted above, Murphy (Table II) discloses a glucose-free solution for the storage of platelets. Elimination of reduction of glucose levels from millimolar to micromolar concentrations has a profound effect in reducing bacterial contamination, however, platelet function at five days, as measured by ATP secretion and P-selectin expression, was poor.

[5] = 30 grams of ribose each day; cited from earlier work
whole blood = conditions: 15 mM ribose; cited from earlier work

OC[C@@H](O)[C@H](O)[C@@H](O)CO [xylitol]
Preservation of platelet function (platelets [1]; trends inconsistent): some benefit

O=C(CO)[C@@H](O)[C@H](O)COP(=O)(O)O [xylulose-5-phosphate, Xylulose-5-phosphate]
Platelet aggregation (platelets [2]; five days storage): weak

O=C(CO)[C@H](O)[C@H](O)COP(=O)(O)O [ribulose-5-phosphate, Ribulose-5-phosphate]
Platelet function parameters versus controls (platelets [1]; 1.5 mM down to 150 pM, analyzed every 24 hours): No difference from controls

O=C[C@H](O)[C@H](O)[C@H](O)CO [D-Ribose]
Preservation of function (P-selectin expression test) (platelets [3]; 150 pM D-Ribose, five days storage): ineffective | % positive (activated) cells (platelets [3]; 153 nM D-Ribose, three days storage, basal): 5% | Preservative effect on ATP secretion (platelets [4]; 1.5 nM D-Ribose): no preservative effect | Rise in total ATP content of treated cells (platelets [4]; 150 nM D-Ribose): more than 10% | Toxicity to platelets (platelets [4]; 15 mM D-Ribose): toxic to platelets | Mean ATP secretion activity, % of baseline (platelets [4]; optimal D-Ribose (150 nM), day 7): > 80% | Platelet samples with aggressive aggregation response (platelets [2]; day 3, 10 nM thrombin): all five | Platelet samples responding (aggregation) (platelets [2]; day five, thrombin): four out of five | Platelet samples able to aggregate (platelets [2]; day seven, thrombin): three out of five | Aggregation on thrombin challenge (platelets [2]; platelets stored in 150 pM D-Ribose): no aggregation | Aggregation on thrombin challenge (platelets [2]; platelets stored in 150 nM D-Ribose): strong aggregation | Aggregation on thrombin challenge (platelets [2]; platelets stored in 15 μM D-Ribose): very weak effect | Aggregation on thrombin challenge (platelets [2]; platelets stored in 1.5 mM D-Ribose): no aggregation | Bacterial contamination (bacteria): lower incidence of bacterial contamination | Platelet function compared with storage in presence of glucose (platelets [1]; 150 nM D-Ribose, glucose eliminated or reduced to micromolar): similar | Tolerability of ingestion [5]: no ill effects | Effect on stored whole blood (whole blood): beneficial
